One test concerns the target T1, ATM enzyme (Homo sapiens, UniProt Q13315).
T1 construct: purchased Eurofins 14-933
As to the kind of experiment: ATM kinase assay (HTRF). The class given is biochemical. Particulars: for inhibition at 1 µM / inhibition at 10 µM / inhibition at 100 µM / inhibition at 0.1 µM: 0.5 h, read-out: Inh (%) ATM kinase inhibition rate; for inhibition at 0.1 µM: C 0.1 μm. As to the method: The mixture was centrifuged at 1000 rpm for 1 minute, and reacted at room temperature away from light for 30 minutes. Then 5 μL of EDTA stop solution (250 mM) was added to stop the reaction. After 5 μL of detection mixture (Anti-phospho-p53 (ser15)-K (Cisbio, #61P08KAE, 0.084 ng/μL) and Anti-GST-d2 (Cisbio, #61GSTDLA, 5.00 ng/μL)) was finally added to each well, then incubate the plate overnight at room temperature.
Relative fluorescence ratio was calculated: Ratio665 nm/615 nm-Ratiobackground, and inhibition rate %=(1−(relative fluorescence ratio of test compound well−relative fluorescence ratio of positive control well)/(relative fluorescence ratio of negative control well−relative fluorescence ratio of positive control well))×100 was calculated. Data were analyzed using GraphPad Prism6.0, and fitted using the curve equation: Y=Bottom+(Top−Bottom)/(1+10^((Log IC50−X)×HillSlope)) and IC50 values were calculated.

In test [1] the test system is human colon cancer cell SW620. As to the kind of experiment: MTT assay, growth of SW620 cells, compounds combined with CPT-11. In kind it is cell-based. The following applies: read-out: IC50, growth of SW620 combined with CPT-11. As to the method: The cells were seeded into 96-well cell culture plate with appropriate cell density and incubated overnight in a 37° C. 5% CO2 incubator. […] 5 μL of each concentration was added to 120 μL of medium (25 times diluted) and mixed by shaking. […] After removing the original solution, 100 μL of fresh serum-free DMEM medium containing MTT (0.5 mg/mL) was added to each well, the culture was continued. […] GraphPad Prism 6.0 was used to analyze the data. The inhibitory activity of compounds on cell proliferation was plotted based on cell viability and compound concentration.

Test [2] deals with human breast cancer cell MDA-MB-468. As to the kind of experiment: MTT assay, growth of MDA-MB-468 cells. In kind it is cell-based. The following applies: read-out: IC50, growth of MDA-MB-468. As for the experimental part:
The cells were seeded into 96-well cell culture plate with appropriate cell density and incubated overnight in a 37° C. 5% CO2 incubator. […] 5 μL of each concentration was added to 120 μL of medium (25 times diluted) and mixed by shaking. The overnight cells were taken and the culture medium was removed, 195 μL of fresh medium was added to each well, and 5 μL of diluted medium containing the corresponding concentration of the tested sample was added, respectively, and the culture plate was then placed in the 5% CO2 cell culture incubator at 37° C. for 7 days (On the fourth day, the medium containing drugs was removed and fresh medium containing drugs was added for continuous cultivation.). After removing the original solution, 100 μL of fresh serum-free DMEM medium containing MTT (0.5 mg/mL) was added to each well, the culture was continued. […] GraphPad Prism 6.0 was used to analyze the data. The inhibitory activity of compounds on cell proliferation was plotted based on cell viability and compound concentration.

The mark [3] stands for this setting: Homo sapiens, SW-620, 120 h, SW620 cells, medium containing 205 nM CPT-11, 5 days, MTT.
Where [4] appears, read: Homo sapiens, 168 h, MDA-MB-468 cells, 7 days, MTT.
Where [5] appears, read: Homo sapiens, MDA-MB-468, 168 h.

Like-named read-outs stand apart in the source and are kept apart here.

T1 sequence (Q13315 whole entry): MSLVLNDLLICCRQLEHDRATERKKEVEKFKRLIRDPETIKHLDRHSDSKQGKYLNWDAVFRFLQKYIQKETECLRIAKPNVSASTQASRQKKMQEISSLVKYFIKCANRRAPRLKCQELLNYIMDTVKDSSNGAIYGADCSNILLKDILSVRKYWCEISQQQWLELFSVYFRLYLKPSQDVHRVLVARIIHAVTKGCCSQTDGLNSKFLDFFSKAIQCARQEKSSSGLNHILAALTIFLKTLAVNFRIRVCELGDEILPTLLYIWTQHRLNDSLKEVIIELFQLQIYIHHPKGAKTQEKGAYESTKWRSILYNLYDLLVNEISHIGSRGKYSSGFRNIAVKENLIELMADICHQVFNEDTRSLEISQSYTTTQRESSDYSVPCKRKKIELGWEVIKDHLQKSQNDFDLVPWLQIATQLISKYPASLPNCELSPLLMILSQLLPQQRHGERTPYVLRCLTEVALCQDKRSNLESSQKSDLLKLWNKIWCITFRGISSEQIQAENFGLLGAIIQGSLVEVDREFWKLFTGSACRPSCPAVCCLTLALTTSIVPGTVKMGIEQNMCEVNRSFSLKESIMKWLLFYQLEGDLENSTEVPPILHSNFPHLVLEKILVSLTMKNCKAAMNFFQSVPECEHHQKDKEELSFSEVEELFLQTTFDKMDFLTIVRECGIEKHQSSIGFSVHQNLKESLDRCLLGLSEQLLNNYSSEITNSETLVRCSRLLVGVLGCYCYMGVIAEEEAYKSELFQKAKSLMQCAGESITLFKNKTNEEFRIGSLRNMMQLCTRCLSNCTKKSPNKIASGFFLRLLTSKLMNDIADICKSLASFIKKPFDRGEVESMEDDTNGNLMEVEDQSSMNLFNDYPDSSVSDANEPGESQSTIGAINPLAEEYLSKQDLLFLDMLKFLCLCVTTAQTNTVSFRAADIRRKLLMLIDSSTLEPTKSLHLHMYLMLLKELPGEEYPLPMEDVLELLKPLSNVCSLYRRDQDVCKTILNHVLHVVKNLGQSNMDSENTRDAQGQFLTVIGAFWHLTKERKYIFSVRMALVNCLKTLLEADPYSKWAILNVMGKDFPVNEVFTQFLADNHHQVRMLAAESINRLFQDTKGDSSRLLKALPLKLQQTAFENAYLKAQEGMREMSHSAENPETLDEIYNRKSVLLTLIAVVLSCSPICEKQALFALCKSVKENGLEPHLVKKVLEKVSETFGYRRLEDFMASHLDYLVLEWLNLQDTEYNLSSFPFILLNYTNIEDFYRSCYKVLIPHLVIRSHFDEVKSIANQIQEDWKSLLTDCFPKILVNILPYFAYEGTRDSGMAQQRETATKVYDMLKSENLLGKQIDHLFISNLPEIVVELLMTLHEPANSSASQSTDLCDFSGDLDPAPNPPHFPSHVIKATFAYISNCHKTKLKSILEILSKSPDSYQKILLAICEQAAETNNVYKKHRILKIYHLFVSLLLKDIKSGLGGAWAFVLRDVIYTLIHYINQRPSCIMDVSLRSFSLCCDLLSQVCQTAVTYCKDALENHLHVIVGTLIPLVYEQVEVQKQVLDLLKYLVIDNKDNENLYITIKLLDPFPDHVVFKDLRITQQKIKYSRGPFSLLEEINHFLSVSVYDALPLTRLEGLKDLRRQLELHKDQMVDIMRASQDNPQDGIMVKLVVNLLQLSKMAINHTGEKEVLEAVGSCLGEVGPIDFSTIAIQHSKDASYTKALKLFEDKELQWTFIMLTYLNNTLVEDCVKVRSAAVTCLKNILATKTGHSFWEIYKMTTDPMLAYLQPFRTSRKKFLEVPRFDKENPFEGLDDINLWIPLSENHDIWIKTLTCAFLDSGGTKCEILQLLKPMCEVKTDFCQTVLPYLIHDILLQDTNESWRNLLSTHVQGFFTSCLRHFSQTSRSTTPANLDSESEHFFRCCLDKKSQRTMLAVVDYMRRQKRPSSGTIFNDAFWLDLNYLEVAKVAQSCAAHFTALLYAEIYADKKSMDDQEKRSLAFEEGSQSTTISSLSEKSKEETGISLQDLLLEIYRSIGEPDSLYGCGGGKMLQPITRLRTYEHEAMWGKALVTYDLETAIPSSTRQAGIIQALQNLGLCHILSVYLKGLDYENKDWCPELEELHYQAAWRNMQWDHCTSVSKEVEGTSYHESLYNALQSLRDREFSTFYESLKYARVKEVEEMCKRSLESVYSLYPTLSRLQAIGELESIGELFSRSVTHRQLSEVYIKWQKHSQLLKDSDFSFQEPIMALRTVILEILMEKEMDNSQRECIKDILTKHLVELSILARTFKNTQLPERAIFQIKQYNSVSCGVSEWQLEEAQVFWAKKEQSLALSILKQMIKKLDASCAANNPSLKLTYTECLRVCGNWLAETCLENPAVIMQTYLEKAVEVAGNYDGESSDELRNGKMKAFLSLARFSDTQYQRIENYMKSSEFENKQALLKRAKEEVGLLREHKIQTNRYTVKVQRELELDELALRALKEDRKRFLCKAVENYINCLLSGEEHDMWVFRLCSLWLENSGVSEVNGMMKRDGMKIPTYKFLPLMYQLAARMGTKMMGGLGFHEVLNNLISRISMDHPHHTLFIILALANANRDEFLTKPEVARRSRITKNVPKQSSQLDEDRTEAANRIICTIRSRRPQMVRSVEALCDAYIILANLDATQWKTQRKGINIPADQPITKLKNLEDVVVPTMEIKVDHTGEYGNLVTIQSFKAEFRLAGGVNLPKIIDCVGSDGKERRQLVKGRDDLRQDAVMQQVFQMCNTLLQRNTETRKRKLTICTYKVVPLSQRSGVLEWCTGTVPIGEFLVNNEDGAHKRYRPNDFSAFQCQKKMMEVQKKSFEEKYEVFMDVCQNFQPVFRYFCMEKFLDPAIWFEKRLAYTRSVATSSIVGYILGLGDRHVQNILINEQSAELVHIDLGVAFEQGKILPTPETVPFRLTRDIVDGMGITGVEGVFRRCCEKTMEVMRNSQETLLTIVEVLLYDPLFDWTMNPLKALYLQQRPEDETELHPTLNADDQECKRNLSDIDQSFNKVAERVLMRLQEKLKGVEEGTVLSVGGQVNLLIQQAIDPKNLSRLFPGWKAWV

Take `CN(C)CCCOc1ccc(-c2ccc3ncn4[nH]c(=O)c(C5CCOCC5)c4c3c2)cn1` [Example 1, 9-(6-(3-(dimethylamino)propoxy)pyridin-3-yl)-1-(tetrahydro-2H-pyran-4-yl)pyrazolo[1,5-c]quinazolin-2(3H)-one]: the inhibition at 1 µM on ATM enzyme (C 1 μm) was found to be 0%. On ATM enzyme (C 10 μm), the inhibition at 10 µM turned out to be 23%. Moreover, the inhibition at 100 µM on ATM enzyme (C 100 μm) came to 69%. The concentration for half-maximal inhibition (IC50) in test [1] (setting [3]) is above 1000 nM; in test [2] (setting [4]), 231 nM.

With `CC(C)c1c(=O)n(C)n2cnc3ccc(-c4ccc(N5CCC(N(C)C)CC5)c(C(F)(F)F)c4)cc3c12` [Example 23, 9-(4-(4-(dimethylamino)piperidin-1-yl)-3-(trifluoromethyl)phenyl)-1-isopropyl-3-methylpyrazolo[1,5-c]quinazolin-2(3H)-one], the IC50 in test [1] (Homo sapiens, SW-620, 120 h) is 8.49 nM; in test [2] (setting [5]) it was 6.76 nM.

Regarding `CNC1CCN(c2ccc(-c3ccc4ncn5c(c(C6CCOCC6)c(=O)n5C)c4c3)cc2C(F)(F)F)CC1` [Example 10, 9-(4-(4-(methylamino)piperidin-1-yl)-3-(trifluoromethyl)phenyl)-3-methyl-1-(tetrahydro-2H-pyran-4-yl)pyrazolo[1,5-c]quinazolin-2(3H)-one], at ATM enzyme, the inhibition at 0.1 µM was found to be 87%. Moreover, at ATM enzyme (C 1 μm), the inhibition at 1 µM came out at 95%. Moreover, the inhibition at 10 µM at ATM enzyme (C 10 μm) was 100%. Also, the IC50 worked out at 1.46 nM in test [1] (setting [3]) and 2.27 nM in test [2] (setting [4]).

`CN(C)C1CCN(c2ccc(-c3ccc4ncn5c(c(C6CCOCC6)c(=O)n5C)c4c3)cc2C(F)(F)F)CC1` [Example 8, 9-(4-(4-(dimethylamino)piperidin-1-yl)-3-(trifluoromethyl)phenyl)-3-methyl-1-(tetrahydro-2H-pyran-4-yl)pyrazolo[1,5-c]quinazolin-2(3H)-one]: the inhibition at 0.1 µM at ATM enzyme was 86%. The inhibition at 1 µM at ATM enzyme (C 1 μm) is 99%. Besides, the inhibition at 10 µM on ATM enzyme (C 10 μm) amounted to 100%. In addition, the IC50 in test [1] (setting [3]) came to 2.1 nM; in test [2] (setting [4]), 2.65 nM.

As to `CN(C)C1CCN(c2ccc(-c3ccc4ncn5c(c(C6CCOCC6)c(=O)n5C)c4c3)cc2F)CC1` [Example 6, 9-(4-(4-(dimethylamino)piperidin-1-yl)-3-fluorophenyl)-3-methyl-1-(tetrahydro-2H-pyran-4-yl)pyrazolo[1,5-c]quinazolin-2(3H)-one], at ATM enzyme, the inhibition at 0.1 µM worked out at 57%. Also, the inhibition at 1 µM on ATM enzyme (C 1 μm) was found to be 94%. For the same compound, the inhibition at 10 µM on ATM enzyme (C 10 μm) worked out at 98%. Also, the concentration for half-maximal inhibition (IC50) in test [1] (setting [3]) worked out at 2.69 nM; in test [2] (setting [4]), 2.71 nM.

In the case of `CC(C)c1c(=O)n(C)n2cnc3ccc(-c4ccc(OCCCN(C)C)nc4)cc3c12` [Example 19, 9-(6-(3-(dimethylamino)propoxy)pyridin-3-yl)-1-isopropyl-3-methylpyrazolo[1,5-c]quinazolin-2(3H)-one], the 50% inhibitory concentration (IC50) in test [1] (Homo sapiens, SW-620, 120 h) came out at 5.67 nM; in test [2] (setting [5]), 5.55 nM.

Turning to `CC(C)c1c(=O)n(C)n2cnc3ccc(-c4ccc(OCCCN(C)C)c(C(F)(F)F)c4)cc3c12` [Example 25, 9-(4-(3-(dimethylamino)propoxy)-3-(trifluoromethyl)phenyl)-1-isopropyl-3-methylpyrazolo[1,5-c]quinazolin-2(3H)-one], the IC50 is 13.4 nM in test [1] (Homo sapiens, SW-620, 120 h) and 13.5 nM in test [2] (setting [5]).

Consider `CC(C)c1c(=O)n(C)n2cnc3ccc(-c4ccc(OCCCN(C)C)c(F)c4)cc3c12` [Example 24, 9-(4-(3-(dimethylamino)propoxy)-3-fluorophenyl)-1-isopropyl-3-methylpyrazolo[1,5-c]quinazolin-2(3H)-one], for which the IC50 in test [1] (Homo sapiens, SW-620, 120 h) was found to be 47.6 nM; in test [2] (setting [5]) it was 43.8 nM.

As to `CCNC1CCN(c2ccc(-c3ccc4ncn5c(c(C6CCOCC6)c(=O)n5C)c4c3)cc2C(F)(F)F)CC1` [Example 11, 9-(4-(4-(ethylamino)piperidin-1-yl)-3-(trifluoromethyl)phenyl)-3-methyl-1-(tetrahydro-2H-pyran-4-yl)pyrazolo[1,5-c]quinazolin-2(3H)-one], at ATM enzyme, the inhibition at 0.1 µM was found to be 66%. The inhibition at 1 µM at ATM enzyme (C 1 μm) came to 95%. Also, on ATM enzyme (C 10 μm), the inhibition at 10 µM turned out to be 100%. The IC50 in test [1] (setting [3]) stood at 4.82 nM; in test [2] (setting [4]), 3.55 nM.

Take `CC(C)c1c(=O)n(C)n2cnc3ccc(-c4ccc(N5CCC(N(C)C)CC5)c(F)c4)cc3c12` [Example 21, 9-(4-(4-(dimethylamino)piperidin-1-yl)-3-fluorophenyl)-1-isopropyl-3-methylpyrazolo[1,5-c]quinazolin-2(3H)-one]: the IC50 was found to be 10.5 nM in test [1] (Homo sapiens, SW-620, 120 h) and 7.22 nM in test [2] (setting [5]).

Consider `CN(C)C1CCN(c2ccc(-c3ccc4ncn5c(c(C6CCOCC6)c(=O)n5C)c4c3)cc2Cl)CC1` [Example 7, 9-(3-chloro-4-(4-(dimethylamino)piperidin-1-yl)phenyl)-3-methyl-1-(tetrahydro-2H-pyran-4-yl)pyrazolo[1,5-c]quinazolin-2(3H)-one], for which the inhibition at 0.1 µM on ATM enzyme came out at 61%. The inhibition at 1 µM on ATM enzyme (C 1 μm) is 91%. In addition, at ATM enzyme (C 10 μm), the inhibition at 10 µM was 96%. The IC50 in test [1] (setting [3]) was 3.16 nM; in test [2] (setting [4]), 3.79 nM.

Regarding `CN(C)CCCOc1ccc(-c2ccc3ncn4c(c(C5CCOCC5)c(=O)n4C)c3c2)cn1` [Example 2, 9-(6-(3-(dimethylamino)propoxy)pyridin-3-yl)-3-methyl-1-(tetrahydro-2H-pyran-4-yl)pyrazolo[1,5-c]quinazolin-2(3H)-one], the inhibition at 1 µM at ATM enzyme (C 1 μm) amounted to 87%. The inhibition at 10 µM at ATM enzyme (C 10 μm) amounted to 96%. Moreover, at ATM enzyme (C 100 μm), the inhibition at 100 µM was determined as 100%. Also, the IC50 in test [1] (setting [3]) is 9.8 nM; in test [2] (setting [4]) it was 9.5 nM.

Take `Cn1c(=O)c(C2CCOCC2)c2c3cc(-c4ccc(OCCCN5CCCCC5)nc4)ccc3ncn21` [Example 3, 9-(6-(3-(piperidin-1-yl)propoxy)pyridin-3-yl)-3-methyl-1-(tetrahydro-2H-pyran-4-yl)pyrazolo[1,5-c]quinazolin-2(3H)-one]: the inhibition at 0.1 µM on ATM enzyme worked out at 66%. The inhibition at 1 µM on ATM enzyme (C 1 μm) is 93%. The inhibition at 10 µM on ATM enzyme (C 10 μm) was found to be 98%. Moreover, the IC50 in test [1] (setting [3]) is 6.22 nM; in test [2] (setting [4]), 6 nM.

Take `CN(C)CCCOc1ccc(-c2ccc3ncc4c(c3c2)n(C2CCOCC2)c(=O)n4C)cn1` [AZD0156, reference compound]: the results for the “Inh (%) ATM kinase inhibition rate” value on ATM enzyme (C 1 μm), on ATM enzyme (C 10 μm) and at ATM enzyme (C 100 μm) were 90%, 95% and 100%, respectively. Besides, the IC50 in test [1] (SW620 cells, medium containing 205 nM CPT-11, 5 days, MTT) is 9.77 nM; in test [2] (MDA-MB-468 cells, 7 days, MTT), 9.87 nM.

For the compound `CC(C)c1c(=O)n(C)n2cnc3ccc(-c4ccc(N5CCC(N(C)C)CC5)c(Cl)c4)cc3c12` [Example 22, 9-(3-chloro-4-(4-(dimethylamino)piperidin-1-yl)phenyl)-1-isopropyl-3-methylpyrazolo[1,5-c]quinazolin-2(3H)-one], the IC50 in test [1] (Homo sapiens, SW-620, 120 h) was found to be 26.1 nM; in test [2] (setting [5]), 22.9 nM.

`CC(C)c1c(=O)n(C)n2cnc3ccc(-c4ccc(OCCCN5CCCCC5)nc4)cc3c12` [Example 20, 9-(6-(3-(piperidin-1-yl)propoxy)pyridin-3-yl)-1-isopropyl-3-methyl-pyrazolo[1,5-c]quinazolin-2(3H)-one]: the IC50 in test [1] (Homo sapiens, SW-620, 120 h) came to 3.48 nM; in test [2] (setting [5]), 2.21 nM.

On to `CN(C)CCCOc1ccc(-c2ccc3ncn4c(c(C5CCOCC5)c(=O)n4C)c3c2)cc1C(F)(F)F` [Example 5, 9-(4-(3-(dimethylamino)propoxy)-3-(trifluoromethyl)phenyl)-3-methyl-1-(tetrahydro-2H-pyran-4-yl)pyrazolo[1,5-c]quinazolin-2(3H)-one], for which, on ATM enzyme, the inhibition at 0.1 µM turned out to be 61%. For the same compound, the inhibition at 1 µM on ATM enzyme (C 1 μm) is 93%. Further, the inhibition at 10 µM on ATM enzyme (C 10 μm) was determined as 100%. The IC50 in test [1] (setting [3]) amounted to 1.52 nM; in test [2] (setting [4]) it was 2.38 nM.

The record behind these values is patent US12673951B2, “Substituted pyrazoloquinazolinone compounds and application thereof” (IMPACT THERAPEUTICS (SHANGHAI), INC, priority 2019, dated 2026).
